US20080119530A1, “Method for treatment and prevention of ultraviolet light induced skin pathologies” (priority 2006, published 2008)

Tests used:
[1] = molecular target: Abl (Homo sapiens, UniProt P00519)
[2] = test system: Akt; experiment: Akt activity by phosphorylation on immunoblot in keratinocytes; format: cell-based, mouse; conditions: sham-irradiated keratinocytes and 30 minutes post-UV
Procedure: Immunoblotting. Flash frozen skin was ground with a mortar and pestle on dry ice, homogenized in lysis buffer containing 10 mM Tris (pH 7.4), 150 mM NaCl, 10% glycerol, 1% Triton X-100, 1 mM EDTA, Complete Protease Inhibitor Cocktail (Roche, Germany), 1 mM Na3V O4, 1.5 μM EGTA, and 10 μM NaF. Protein was quantified using the Coomassie Brilliant Blue G-250 protein assay (Bio-Rad, Hercules, Calif.). The evenness of loading and transfer was determined by staining with Ponceau S and by actin immunoblotting. […]
Cell culture. […] Transfection efficiency was quantified by determining the proportion of the cells that incorporated the fluorescent Cy3-conjugated siRNA or GFP one day post-transfection. […]

[3] = test system: primary keratinocytes; experiment: Cell cycle distribution (DNA content, flow cytometry) in cultured keratinocytes; format: cell-based, mouse
Excerpt: Cell culture. […] Keratinocytes were transfected with Erbb2-targeted siRNA (32), Stealth RNAi Negative Control LO GC (Invitrogen, Carlsbad, Calif.), Cy3-conjugated Label IT RNAi Delivery Control (Mirus, Madison, Wis.) or sham transfection with TransIT-siQUEST Transfection Reagent (Mirus, Madison, Wis.). Plasmids with Cdc25a (Hassepass et al. 2003a) and EGFP (enhanced green fluorescent protein) cDNA were cotransfected with Lipofectamine Transfection Reagent (Invitrogen, Carlsbad, Calif.). Transfection efficiency was quantified by determining the proportion of the cells that incorporated the fluorescent Cy3-conjugated siRNA or GFP one day post-transfection. Keratinocytes homozygous for the Erbb2 loxP mutation were infected with Cre recombinase-expressing or empty adenoviral vectors in polybrene (Sigma).
Cell cycle. For in vivo analysis of cell cycle distribution, sections from paraffin embedded blocks were dewaxed with xylene, rehydrated and digested in PBS containing 0.5% pepsin (Sigma, St. Louis, Mo.). The nuclei were isolated by filtration and suspended in Vindelov's solution reagent (3.5 mM tris base, pH 7.6, 10 mM NaCl, […] Ribonuclease A, 75 μg/ml PI, 1.01l/ml IPEGAL) (56). For in vitro analysis, keratinocytes were resuspended, fixed in 70% ethanol, resuspended in Vindelov's solution (3.5 mM Tris base, pH 7.6, 10 mM NaCl, 10 μg/ml Ribonuclease A, 75 μg/ml propidium iodide, 1.01l/ml IPEGAL), and analyzed on a FACSCalibur flow cytometer (Becton Dickinson, Franklin Lakes, N.J.). Cell cycle distributions were determined using ModFit LT 3.1 software (Verity Software House, Topsham, Me.). […]
To further investigate Erbb2's effects on cell cycle progression after UV irradiation, DNA synthesis was examined after UV irradiation of cultured primary keratinocytes lacking Erbb2 activity. […] An even more striking effect was detected after UV irradiation. […] The influence of Erbb2 activation on S-phase progression was determined using both pharmacologic and genetic models to interfere with Erbb2 signaling. […]

[4] = test system: EGFR; experiment: UV-induced phosphorylation of EGFR; format: cell-based, mouse
Excerpt: For some experiments, the epidermis was separated from the skin by the heat shock method before homogenization. Keratinocytes were lysed in the same buffer. Membranes were immunoblotted with antibodies recognizing Erbb2, phospho-Erbb2 (Tyr^1248), EGFR, phospho-EGFR (Tyr^992), phospho-EGFR (Tyr^1173), phosphotyrosine, and Tall (Calbiochem, San Diego, Calif.). Binding of horseradish peroxidase-conjugated secondary antibodies (Cell Signaling, Beverly, Mass.) was visualized using chemiluminescent reagents (Pierce, Rockford, Ill.) and autoradiography. Densitometry was performed using IDScan software (Scanalytics, Fairfax, Va.).
Several methods were developed to regulate Erbb2 expression and activity both in vitro and in vivo.

Sequence of Abl (P00519 whole entry, species assumed): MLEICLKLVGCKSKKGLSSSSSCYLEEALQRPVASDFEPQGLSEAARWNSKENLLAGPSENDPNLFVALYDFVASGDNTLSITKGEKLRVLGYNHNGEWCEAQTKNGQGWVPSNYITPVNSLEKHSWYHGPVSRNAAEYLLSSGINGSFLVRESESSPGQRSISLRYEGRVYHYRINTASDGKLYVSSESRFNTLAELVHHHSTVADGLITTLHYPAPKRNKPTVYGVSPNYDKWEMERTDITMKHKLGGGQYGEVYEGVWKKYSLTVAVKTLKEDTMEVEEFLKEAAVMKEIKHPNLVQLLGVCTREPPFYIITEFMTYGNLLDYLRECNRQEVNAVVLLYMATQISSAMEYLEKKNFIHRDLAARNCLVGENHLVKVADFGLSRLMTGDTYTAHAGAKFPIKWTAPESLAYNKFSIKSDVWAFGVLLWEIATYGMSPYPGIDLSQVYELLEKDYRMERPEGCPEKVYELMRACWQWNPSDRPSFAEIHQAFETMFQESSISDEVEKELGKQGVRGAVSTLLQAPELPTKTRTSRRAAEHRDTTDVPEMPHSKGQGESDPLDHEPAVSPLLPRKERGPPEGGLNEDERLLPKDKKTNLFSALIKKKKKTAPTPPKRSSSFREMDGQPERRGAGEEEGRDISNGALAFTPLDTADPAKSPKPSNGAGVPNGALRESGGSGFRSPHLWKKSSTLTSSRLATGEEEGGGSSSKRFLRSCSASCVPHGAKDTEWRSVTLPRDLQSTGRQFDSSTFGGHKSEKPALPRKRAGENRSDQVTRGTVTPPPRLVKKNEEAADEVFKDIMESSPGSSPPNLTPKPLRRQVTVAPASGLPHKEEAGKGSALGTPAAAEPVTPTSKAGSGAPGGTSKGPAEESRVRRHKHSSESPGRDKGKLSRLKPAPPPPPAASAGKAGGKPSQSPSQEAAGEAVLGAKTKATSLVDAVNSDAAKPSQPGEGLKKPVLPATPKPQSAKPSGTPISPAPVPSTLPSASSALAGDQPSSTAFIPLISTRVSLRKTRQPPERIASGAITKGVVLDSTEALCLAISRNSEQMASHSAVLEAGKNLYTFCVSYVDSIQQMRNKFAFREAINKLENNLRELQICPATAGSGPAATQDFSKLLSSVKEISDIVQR

## COc1cc(/C=C(\C#N)C(N)=O)cc(CSc2nc3ccccc3s2)c1O [AG825]
[1]
  fold higher IC50 for Abl than for Erbb2: more than 100 fold
[2]
  Akt activity, measured by its phosphorylation on immunoblot: reduced
[3]; after UV exposure
  time at which S-phase arrest began: 18 h
[3]; after sham UV
  S-phase arrest: caused S-phase arrest
[3]; inhibition prior to UV exposure
  increase in the percentage of cells in S-phase: 10%
[4]
  EGFR phosphorylation at Tyr1173 after UV: did not block
  UV-induced phosphorylation of EGFR-Tyr992: blocked
